Test results reported in paper PMC4467147, “Identification of epipolythiodioxopiperazines HDN-1 and chaetocin as novel inhibitor of heat shock protein 90” (Oncotarget, 2015).
Where two headings read alike, the source gives them in different places.

Key:
H1975 cells [1] = assay: Drug combination study HDN-1 and 17-AAG, MTT assay, H1975; format: cell-based, human; settings: H1975, 72 h
Protocol: (§1) A modified tetrazolium salt assay was used to measure the inhibition of cancer cell growth. Cancer cells were plated into a 96-well microtiter plate containing 0.1 ml of growth media/well for 24 h, then were incubated with HDN-1 at indicated concentrations dissolved in DMSO for 72 h. 3-(4,5-Dimethylthiazol-2-yl)-2,5- diphenyltetrazoliumbromide (MTT) was added to each well of a 96-well plate. After 4 h incubation, the formazan product was dissolved and quantitated spectrophotometrically at a wavelength of 560 nm. Percent viability of each sample was calculated from the A560 values as follows: % viability = (A560 nm sample / A560 nm DMSO-treated cells × 100). The IC50 was defined as the concentration that gave rise to 50% inhibition of cell viability.
H1975 cell were seeded in triplicate in 96-well plates and treated with HDN-1 or 17-AAG alone or with the combination of HDN-1 and 17-AAG at the indicated doses. MTT assays were performed after 72 h of treatment. The Q (value) was calculated according to Jin's formula: Q = Ea+b/(Ea+Eb−Ea × Eb). Ea+b represented the inhibition rate of drug combination, Ea and Eb represented the inhibition rate of drug A and B alone, respectively. Q (value) = 0.85–1.15 stands for additivity, Q (value) > 1.15–2.0 stands for synergism, and Q (value) < 0.85–0.55 stands for antagonism.

HCC827 cells = assay: MTT cell viability assay, HCC827; format: cell-based, human; settings: HCC827, 72 h, read-out: IC50 cell proliferation
Protocol: as §1

H1975 cells [2] = assay: MTT cell viability assay, H1975; format: cell-based; settings: Homo sapiens, NCI-H1975, H1975, 72 h, read-out: IC50 cell proliferation
Protocol: as §1

Hsp90α ATPase = Hsp90α ATPase (Homo sapiens, UniProt P07900); assay: Hsp90α ATPase activity; format: biochemical; settings: data not shown
A549 cells = assay: MTT cell viability assay, A549; format: cell-based, human; settings: A549, 72 h, read-out: IC50 cell proliferation
Protocol: as §1

Hsp90α = target: T1, Hsp90α (Homo sapiens, UniProt P07900); assay: Fluorescence polarization competitive assay, displacement of FITC-GA from Hsp90α; settings: 200 nM FITC-GA, 30 nM Hsp90α; read-out: IC50, effect on the binding of GA to Hsp90
T1 construct: For full length Hsp90α, Hsp90α was coupled to the surface of a GLH sensor chip using amine coupling
Protocol: Fluorescence polarization assays were performed under the following conditions: each 96-well plate contained 200 nM FITC-GA, Hsp90α (30 nM), and tested inhibitor (initial stock in DMSO) in a final volume of 100 μl. For each assay, background wells (buffer only), tracer controls (free, FITC-GA only), and bound GA controls (fluorescent GA in the presence of Hsp90) were included on each assay plate. The fraction of tracer bound to Hsp90 was correlated to the mP value and plotted against log10 values of competitor concentrations. The HDN-1 and 17-AAG concentrations at which 50% of bound GA was displaced was obtained by fitting the data. Fluorescence intensity measurements were obtained using a SpectraMax M5 (Molecular Devices, Sunnyvale, CA). The excitation and emission wavelengths were 485 nm and 530 nm, respectively.

Hsp90 client proteins = assay: Western blotting of Hsp90 client proteins and Hsp70 in NSCLC cells; format: cell-based, human; settings: for effect on level of SUV39H1: 24 h; for effect on Hsp90 client protein levels (EGFR, Akt, Cyclin D1 etc.): NSCLC cells
Protocol: Cells were incubated with HDN-1 at indicated concentrations and time, then washed with PBS twice, disrupted on ice for 30 min in loading buffer, and boiled for 10 min. Protein concentration was determined with BCA reagent. Equal amounts of protein in cell lysates were separated by SDS-PAGE, transferred to membranes, immunoblotted with indicated primary and secondary antibodies, and detected by chemiluminescence with the enhanced chemiluminescence detection reagents (PIERCE). The antibodies of following proteins were used: EGFR, phosphorylated EGFR (Tyr1068), Akt, phosphorylated Akt (Ser473), MAPK, phosphorylated MAPK (Thr202/Tyr204), ubiquitin, Hsp70, β-Actin; Abl, Stat3, phosphorylated Stat3 (Ser727), Raf-1, cyclin D1. For immunoprecipitation assay, cell lysate protein was incubated overnight at 4°C with the designated antibody and protein G-Sepharose (Amersham Biosciences) was added overnight while rocking. Precipitates were washed three times with lysis buffer and once with PBS, resuspended in 2 × loading buffer, and resolved by SDS-PAGE followed by immunoblot analysis.

[3] = target: T2, C-terminal Hsp90 fragment (535–732aa) of human Hsp90α (Homo sapiens, UniProt P07900); assay: ForteBio Octet binding to biotinylated C-terminal Hsp90α; settings: Octet RED96, read-out: Kd for C-terminus of Hsp90α
T2 construct: recombinant C-terminal Hsp90 fragment (535–732aa) of human Hsp90α
Protocol: (§2) SPR analysis was carried out with a ProteOn XPR36 instrument (Bio-Rad) or ForteBio's Octet RED96 to determine binding of various molecules to full length Hsp90α or C-terminal Hsp90α. For full length Hsp90α, Hsp90α was coupled to the surface of a GLH sensor chip using amine coupling. The coupling has been performed according to the manufacturer's instructions. Binding experiments were performed with multiple concentrations of HDN-1 and chaetocin running over the surface of the chip at 25°C, at a constant flow rate of 30 μl/min in PBS-T (10 mM Phosphate, 150 mM NaCl, pH 7.4 and 0.005% Tween20 [v/v]). The sensor chip surface was regenerated using 0.85% H3PO4. Changes in mass due to the binding response were recorded as resonance units (RU). To obtain the dissociation constant (Kd), these responses were fit to a 1:1 Langmuir binding model by nonlinear regression using the BiaEvaluation 4.1 software program. For interplay of HDN-1 with other molecules, 50 μM 17-AAG, 50 μM novobiocin, or 100 μM ATP was injected into Hsp90α-immobilized chip and the RU values were recorded in succession for indicated time, then these compounds were replaced by 50 μM HDN-1, and RU values were recorded unceasingly. Similar experiments were conversely performed and RU values were recorded. […] Binding of samples (31.25–500 μM) to coated and uncoated reference sensors was measured over 60 s. […]

full length Hsp90α = target: T3, full length Hsp90α (Homo sapiens, UniProt P07900); assay: SPR binding to full-length Hsp90α immobilized on sensor chip; settings: 25°C, 1:1 Langmuir model, read-out: dissociation constant (Kd) for full-length Hsp90α
T3 construct: For full length Hsp90α, Hsp90α was coupled to the surface of a GLH sensor chip using amine coupling
Protocol: as §2

[4] = target: C-terminus of ATP binding site (660–680 aa) of Hsp90α; set-up: method as in PMID 11751878; settings: read-out: binding affinity to C-terminus of ATP binding site of Hsp90α; cited from earlier work

SMILES: C=CCNC1=C2C[C@@H](C)C[C@H](OC)[C@H](O)[C@@H](C)/C=C(\C)[C@H](OC(N)=O)[C@@H](OC)/C=C\C=C(/C)C(=O)NC(=CC1=O)C2=O [17-AAG]
- Inhibition Rate Mean (H1975 cells [1]; single agent 100 nM): 0.070
- Inhibition Rate Mean (H1975 cells [1]; single agent 200 nM): 0.267
- Inhibition Rate Mean (H1975 cells [1]; single agent 300 nM): 0.393

SMILES: CN1C(=O)[C@]23SSS[C@@]1(CO)C(=O)N2[C@H]1Nc2ccccc2C1(C12c4ccccc4N[C@@H]1N1C(=O)[C@]4(CO)SS[C@]1(C(=O)N4C)[C@H]2O)[C@@H]3O (stereo partly shown) [HDN-1]
- IC50 (HCC827 cells): 1.06 µM
- IC50 (HCC827 cells; Homo sapiens): 0.54 µM
- IC50 (H1975 cells [2]): 0.22 µM
- inhibition at 0.1 µM (H1975 cells [1]; Homo sapiens, NCI-H1975, single agent 100 nM, read-out: Inhibition Rate Mean): 5.1%
- inhibition at 0.2 µM (H1975 cells [1]; Homo sapiens, NCI-H1975, single agent 200 nM, read-out: Inhibition Rate Mean): 37.1%
- effect on Hsp90α ATPase activity (Hsp90α ATPase): no effect
- IC50 (A549 cells): 0.54 µM
- IC50 (A549 cells; Homo sapiens): 1.06 µM
- IC50 (Hsp90α): > 10 µM
- effect on level of SUV39H1 (Hsp90 client proteins; Western blotting): decline
- effect on Hsp70 expression (Hsp90 client proteins; H1975, HCC827, A549 cells, Western blotting): did not obviously affect
- effect on HIF-1α (Hsp90 client proteins; H1975 and A549 cells, CoCl2-induced hypoxia or 5% CO2 and 2% O2): degraded
- effect on Hsp90 client protein levels (EGFR, Akt, Cyclin D1 etc.) (Hsp90 client proteins; Western blotting): reduced the expression levels
- Kd [3]: 201 µM
- Kd (full length Hsp90α): 14.6 µM

SMILES: CO[C@@H]1[C@@H](OC(N)=O)[C@@H](O)[C@H](Oc2ccc3c(O)c(NC(=O)c4ccc(O)c(CC=C(C)C)c4)c(=O)oc3c2C)OC1(C)C [Novobiocin]
- Kd [4]: ~3300 µM

SMILES: CN1C(=O)[C@@]23C[C@]4([C@]56C[C@@]78SS[C@@](CO)(C(=O)N7[C@H]5Nc5ccccc56)N(C)C8=O)c5ccccc5N[C@@H]4N2C(=O)[C@]1(CO)SS3 [chaetocin]
- effect on level of SUV39H1 (Hsp90 client proteins; Western blotting): decline
- effect on Hsp90 client protein levels (EGFR, Akt, Cyclin D1 etc.) (Hsp90 client proteins; Western blotting): degraded client proteins
- Kd (full length Hsp90α): 16.8 µM
